Source: patent publication US9758484B2 (Asieris Pharmaceutical Technologies Co., Ltd., priority 2013, dated 2017)
“And” between values parts separate entries of the source, which are not always exact repeats. Equal values may be shown once. Where a name gives a salt, the structure may show the parent alone. Read-outs that look alike come from different tables or passages of the source.

How the values were obtained:
[1] = Solubility tests of nitroxoline and nitroxoline salts in aqueous buffers and water; assay type: physicochemical; settings: for solubility at 30 min: thermodynamic from solid; for solubility at a physiologically relevant pH: pH of 4.5 to 8, in contrast to nitroxoline and acid addition salts
Method: 1) Aqueous buffer solutions with varying pH were prepared as follows: • i. Water: distilled water; • ii. pH=1.2 buffer: 7.65 mL 36.5% HCl solution was diluted to 1000 mL with water; • iii. pH=4.5 buffer: 18 g sodium acetate and 9.8 mL acetic acid were diluted to 1000 mL with water; • iv. pH=5.0 buffer: sodium hydroxide was added to 0.2 mol/L monosodium phosphate (NaH2PO4) solution until the pH was adjusted to 5.0; • v. pH=6.0 buffer: 18 g sodium acetate were added into 20 mL acetic acid solution (1 M), and the mixture was diluted to 500 mL with water; • vi. pH=6.8 buffer: 250 mL of 0.2 M monopotassium phosphate (KH2PO4) solution were added to 118 mL of 0.2 M sodium hydroxide solution, and the mixture was diluted to 1000 mL with water; • vii. pH=7.4 buffer: 1.36 g monopotassium phosphate (KH2PO4) were added to 79 mL of 0.1 M sodium hydroxide solution, and the mixture was diluted to 200 mL with water; and • viii pH=8.0 buffer: 5.59 g potassium biphosphate (K2HPO4) and 0.41 g monopotassium. phosphate (KH2PO4) were added to 1000 mL water and mixed.
2) Solubility tests were performed generally as follows:
Under a temperature of 25±2° C., 10 mg of each salt sample was weighed and added to a 100 mL volumetric bottle. 0.25 mL buffer was added to the bottle, which was shaken vigorously for 30 seconds every 5 min.
If the sample was not completely dissolved, 0.7 mL of the same buffer was added, and dissolution was observed by the same shaking procedure.
If the sample was not completely dissolved, 8.5 mL of the same buffer was added, and dissolution was observed by the same shaking procedure.
If the sample was not completely dissolved, 85 mL of the same buffer was added, and dissolution was observed by the same shaking procedure.

[2] = In vivo urinary excretion of nitroxoline and nitroxoline salts in beagle dogs
Method: Urine samples were collected in the following periods of time: 0-2, 2-4, 4-6, 6-8, 8-24 h. Urine samples were analyzed by LC/MS/MS method utilizing an Agilent 1100 HPLC system with a CTC auto-sampler, an AB API4000 mass spectrometer, and a column of ACQUITY UPLC BEH C18 (2.1*50 mm) Dexamethasone was used as an internal standard. […] The range of linearity was determined to be 25˜5000 ng/mL.
(§1) The same study was repeated with APL-1092, nitroxoline lysine salt.

[3] = In vivo urinary excretion of nitroxoline and nitroxoline salts in mice; design: species or system CD-1 ICR mice
Method: Urine samples were collected in the following periods of time: 0-2, 2-6, 6-24 h. Due to the small volume of the urine from mice, the collecting system in the cage was washed with water at each collecting time. Urine samples and their wash samples were analyzed according to the same methods used in the beagle dog study (Example 24).
as §1

[4] = distilled water, 25 °C, water, distilled water, 25±2° C., read-out: Solubility water
[5] = pH 1.2 buffer (dilute HCl), 25 °C, pH 1.2, simulated gastric fluid, pH=1.2 buffer, 25±2° C., read-out: Solubility pH 1.2
[6] = pH 4.5 acetate buffer, 25 °C, pH 4.5, aqueous buffer, pH=4.5 buffer, 25±2° C., read-out: Solubility pH 4.5
[7] = pH 5.0 phosphate buffer, 25 °C, pH 5, aqueous buffer, pH=5.0 buffer, 25±2° C., read-out: Solubility pH 5
[8] = pH 6.0 acetate buffer, 25 °C, pH 6, aqueous buffer, pH=6.0 buffer, 25±2° C., read-out: Solubility pH 6
[9] = pH 6.8 phosphate buffer, 25 °C, pH 6.8, aqueous buffer, pH=6.8 buffer, 25±2° C., read-out: Solubility pH 6.8
[10] = pH 7.4 phosphate buffer, 25 °C, pH 7.4, aqueous buffer, buffer headed 'pH .4', 25±2° C., read-out: Solubility pH .4
[11] = pH 8.0 phosphate buffer, 25 °C, pH 8, aqueous buffer, pH=8.0 buffer, 25±2° C., read-out: Solubility pH 8.0

Cl.O=[N+]([O-])c1ccc(O)c2ncccc12 [APL-1071, Nitroxoline HCl Salt]
solubility at 30 min ([1]; aqueous buffers pH 1.2 to 8, 25 °C, pH 1.2, aqueous buffer, all pHs tested, from pH 1.2 to 8, read-out: solubility at all pHs tested): < 100 µg/mL | solubility at 30 min [1, 4]: < 100 µg/mL | solubility at 30 min [1, 5]: < 100 µg/mL | solubility at 30 min [1, 6]: < 100 µg/mL | solubility at 30 min [1, 7]: < 100 µg/mL | solubility at 30 min [1, 8]: < 100 µg/mL | solubility at 30 min [1, 9]: < 100 µg/mL | solubility at 30 min [1, 10]: < 100 µg/mL | solubility at 30 min [1, 11]: < 100 µg/mL

O=[N+]([O-])c1ccc([O-])c2ncccc12.[Na+] [APL-1072, Nitroxoline Sodium Salt]
solubility at 30 min [1, 4]: 1000 to 10000 µg/mL | solubility at 30 min [1, 5]: < 100 µg/mL | solubility at 30 min [1, 6]: < 100 µg/mL | solubility at 30 min [1, 7]: < 100 µg/mL | solubility at 30 min [1, 8]: < 100 µg/mL | solubility at 30 min [1, 9]: < 100 µg/mL | solubility at 30 min [1, 10]: < 100 µg/mL | solubility at 30 min [1, 11]: < 100 µg/mL | solubility at a physiologically relevant pH [1]: significantly improved solubility

Br.O=[N+]([O-])c1ccc(O)c2ncccc12 [APL-1074, Nitroxoline HBr Salt]
solubility at 30 min [1, 4]: < 100 µg/mL | solubility at 30 min [1, 5]: 1000 to 10000 µg/mL | solubility at 30 min [1, 6]: < 100 µg/mL | solubility at 30 min [1, 7]: < 100 µg/mL | solubility at 30 min [1, 8]: < 100 µg/mL | solubility at 30 min [1, 9]: < 100 µg/mL | solubility at 30 min [1, 10]: < 100 µg/mL | solubility at 30 min [1, 11]: < 100 µg/mL

O=[N+]([O-])c1ccc(O)c2ncccc12 [APL-1075, Nitroxoline HNO3 Salt]
solubility at 30 min [1, 6]: < 100 µg/mL | solubility at 30 min [1, 7]: < 100 µg/mL | solubility at 30 min [1, 8]: < 100 µg/mL | solubility at 30 min [1, 9]: < 100 µg/mL

O=[N+]([O-])c1ccc([O-])c2ncccc12.[K+] [APL-1077, Nitroxoline Potassium Salt]
solubility at 30 min [1, 4]: 1000 to 10000 µg/mL | solubility at 30 min [1, 5]: < 100 µg/mL | solubility at 30 min [1, 6]: < 100 µg/mL | solubility at 30 min [1, 7]: < 100 µg/mL | solubility at 30 min [1, 8]: < 100 µg/mL | solubility at 30 min [1, 9]: < 100 µg/mL | solubility at 30 min [1, 10]: < 100 µg/mL | solubility at 30 min [1, 11]: 1000 to 10000 µg/mL | solubility at a physiologically relevant pH [1]: significantly improved solubility

O=[N+]([O-])c1ccc(O)c2ncccc12 [APL-1092, Nitroxoline Lysine Salt]
24-Hr Accumulated drug in the urine ([2]; In Dogs, 75 mg APL-1202 or equivalent amount): 617 µg | increase in drug excretion in the urine as compared to nitroxoline ([2]; beagle dogs, dosed at the equivalent amount of nitroxoline in moles): more than five times | f (%): percentage of total mass of excreted drug versus the dose amount ([2]; individual dogs, oral tablet, 75 mg nitroxoline equivalent): 1.1% and 0.419% and 0.949% | Total mass of nitroxoline in urine ([2]; individual dogs, oral tablet, 75 mg nitroxoline equivalent, 0-24 hr): 825000 ng and 313943 ng and 711720 ng | Mass of nitroxoline in urine, 0-2 hr ([2]; individual dogs, oral tablet, 75 mg nitroxoline equivalent, collection 0-2 hr): 0 ng and 15153 ng and 163020 ng | Mass of nitroxoline in urine, 2-4 hr ([2]; individual dogs, oral tablet, 75 mg nitroxoline equivalent, collection 2-4 hr): 0 ng and 130150 ng and 219300 ng | Mass of nitroxoline in urine, 4-6 hr ([2]; individual dogs, oral tablet, 75 mg nitroxoline equivalent, collection 4-6 hr): 0 ng (2×) and 96900 ng | Mass of nitroxoline in urine, 6-8 hr ([2]; individual dogs, oral tablet, 75 mg nitroxoline equivalent, collection 6-8 hr): 0 ng (2×) and 22165 ng | Mass of nitroxoline in urine, 8-24 hr ([2]; individual dogs, oral tablet, 75 mg nitroxoline equivalent, collection 8-24 hr): 825000 ng and 49575 ng and 329400 ng | f (%): percentage of total mass of excreted drug versus the dose amount, Mean ([2]; mean of dogs, oral tablet, 75 mg nitroxoline equivalent): 0.823% | Total mass of nitroxoline in urine, Mean ([2]; mean of dogs, oral tablet, 75 mg nitroxoline equivalent, 0-24 hr): 616888 ng | Mass of nitroxoline in urine, 0-2 hr, Mean ([2]; mean of dogs, oral tablet, 75 mg nitroxoline equivalent, collection 0-2 hr): 89086 ng | Mass of nitroxoline in urine, 2-4 hr, Mean ([2]; mean of dogs, oral tablet, 75 mg nitroxoline equivalent, collection 2-4 hr): 174725 ng | Mass of nitroxoline in urine, 4-6 hr, Mean ([2]; mean of dogs, oral tablet, 75 mg nitroxoline equivalent, collection 4-6 hr): 96900 ng | Mass of nitroxoline in urine, 6-8 hr, Mean ([2]; mean of dogs, oral tablet, 75 mg nitroxoline equivalent, collection 6-8 hr): 22165 ng | Mass of nitroxoline in urine, 8-24 hr, Mean ([2]; mean of dogs, oral tablet, 75 mg nitroxoline equivalent, collection 8-24 hr): 401325 ng | 24-Hr Accumulated drug in the urine ([3]; In Mice, 41.8 mg/Kg APL-1202 or equivalent dose, 41.8 mg/kg): 139 µg | Total mass of nitroxoline in urine and wash ([3]; individual mice, oral, equivalent of 41.8 mg/Kg nitroxoline, 0-24 hr, 41.8 mg/kg): 174297 ng and 118681 ng and 56516 ng and 155110 ng and 87439 ng and 143396 ng | f (%): percentage of total mass of excreted drug versus the dose amount ([3]; individual mice, oral, equivalent of 41.8 mg/Kg nitroxoline, 41.8 mg/kg): 34.7% and 22.3% and 11.1% and 28.4% and 17.7% and 19.8% | Mass of nitroxoline, 0~2 wash ([3]; individual mice, oral, equivalent of 41.8 mg/Kg nitroxoline, cage wash 0~2 hr, 41.8 mg/kg): 113000 ng and 25240 ng and 15015 ng and 25300 ng and 47650 ng and 19320 ng | Mass of nitroxoline, 2~6 wash ([3]; individual mice, oral, equivalent of 41.8 mg/Kg nitroxoline, cage wash 2~6 hr, 41.8 mg/kg): 6055 ng and 3618 ng and 8190 ng and 4635 ng and 4868 ng and 1960 ng | Mass of nitroxoline, 6~24 wash ([3]; individual mice, oral, equivalent of 41.8 mg/Kg nitroxoline, cage wash 6~24 hr, 41.8 mg/kg): 296 ng and 158 ng and 246 ng and 286 ng and 227 ng and 190 ng | Mass of nitroxoline in urine, 0-2 hr ([3]; individual mice, oral, equivalent of 41.8 mg/Kg nitroxoline, urine 0-2 hr, 41.8 mg/kg): 51600 ng and 84300 ng and 31970 ng and 107380 ng and 31122 ng and 120000 ng | Mass of nitroxoline in urine, 2-6 hr ([3]; individual mice, oral, equivalent of 41.8 mg/Kg nitroxoline, urine 2-6 hr, 41.8 mg/kg): 3308.5 ng and 5263.2 ng and 1084 ng and 17458 ng and 3500 ng and 1846 ng | Mass of nitroxoline in urine, 6-24 hr ([3]; individual mice, oral, equivalent of 41.8 mg/Kg nitroxoline, urine 6-24 hr, 41.8 mg/kg): 37.5 ng and 101.64 ng and 10.4 ng and 51 ng and 73 ng and 79.6 ng | Total mass of nitroxoline in urine and wash, Mean ([3]; mean of mice, oral, equivalent of 41.8 mg/Kg nitroxoline, 0-24 hr, 41.8 mg/kg): 122573 ng | f (%): percentage of total mass of excreted drug versus the dose amount, Mean ([3]; mean of mice, oral, equivalent of 41.8 mg/Kg nitroxoline, 41.8 mg/kg): 22.3% | Mass of nitroxoline, 0~2 wash, Mean ([3]; mean of mice, oral, equivalent of 41.8 mg/Kg nitroxoline, cage wash 0~2 hr, 41.8 mg/kg): 40921 ng | Mass of nitroxoline, 2~6 wash, Mean ([3]; mean of mice, oral, equivalent of 41.8 mg/Kg nitroxoline, cage wash 2~6 hr, 41.8 mg/kg): 4888 ng | Mass of nitroxoline, 6~24 wash, Mean ([3]; mean of mice, oral, equivalent of 41.8 mg/Kg nitroxoline, cage wash 6~24 hr, 41.8 mg/kg): 234 ng | Mass of nitroxoline in urine, 0-2 hr, Mean ([3]; mean of mice, oral, equivalent of 41.8 mg/Kg nitroxoline, urine 0-2 hr, 41.8 mg/kg): 71062 ng | Mass of nitroxoline in urine, 2-6 hr, Mean ([3]; mean of mice, oral, equivalent of 41.8 mg/Kg nitroxoline, urine 2-6 hr, 41.8 mg/kg): 5410 ng | Mass of nitroxoline in urine, 6-24 hr, Mean ([3]; mean of mice, oral, equivalent of 41.8 mg/Kg nitroxoline, urine 6-24 hr, 41.8 mg/kg): 58.8 ng | increase of drug excretion in the urine as compared to nitroxoline ([3]; mice, dosed at the equivalent amount of nitroxoline in moles): approximately two times greater
